Reference: patent US7514421B2, “Use of an IBAT inhibitor for the treatment of constipation” (Albireo AB, priority 2003, dated 2009)

Test system: constipated dog
Test: Buenos dog model for constipation (low fibre/high protein diet, 20 g meat/kg dog/day)
Type: in vivo
Conditions: constipated dogs
Description: As stated hereinbefore the compounds defined in the present invention are useful in the treatment of functional constipation and C-IBS. These properties may be assessed, for example, using models known in the art: • Buenos dog model for constipation, (Hepato-gasteroenterology, 1980, 27, 381-389).
Once constipation has been induced the animals can be dosed with an IBAT inhibitor to asses the ability of the IBAT inhibitor to relieve the constipation.
The following data was generated using the Buenos dog model (method described in the publication above) with the modification that the dogs were given 20 g meat/kg dog/day. The result is calculated as mean value of the increase of faeces during the three treatment days subtracted with the entry value (day before start of treatment with the IBAT inhibitor). The dogs were judge as constipation if there faeces amount per day was below 30 gram.

Row | Structure (SMILES) | Result: mean increase of faeces during the three treatment days subtracted with the entry value (dose 1.5 μmol/kg, 2 animals) | Result: mean increase of faeces during the three treatment days subtracted with the entry value (dose 1.5 μmol/kg, 2 animals, listed as compound 3) | Result: mean increase of faeces during the three treatment days subtracted with the entry value (dose 1.5 μmol/kg, 2 animals, listed as compound 2) | Result: mean increase of faeces during the three treatment days subtracted with the entry value (dose 5 μmol/kg, 3 animals) | Result: mean increase of faeces during the three treatment days subtracted with the entry value (dose 5 μmol/kg, 3 animals, listed as compound 1)
1 | CCCCC1(CCCC)CN(c2ccccc2)c2cc(SC)c(OCC(=O)N[C@@H](C(=O)N[C@H](C(=O)O)C(C)C)c3ccc(O)cc3)cc2S(=O)(=O)N1 [Compound 3, 1,1-Dioxo-3,3-dibutyl-5-phenyl-7-methylthio-8-(N-{(R)-α-[N-((S)-1-carboxy-2-methylpropyl)carbamoyl]-4-hydroxybenzyl}carbamoylmethoxy)-2,3,4,5-tetrahydro-1,2,5-benzothiadiazepine] | 39 ± 2 g/day | 39 ± 2 g/day |  |  | 
2 | CCCCC1(CCCC)CN(c2ccccc2)c2cc(SC)c(OCC(=O)N[C@@H](C(=O)N[C@H](C(=O)O)[C@@H](C)O)c3ccc(O)cc3)cc2S(=O)(=O)N1 [Compound 2, 1,1-Dioxo-3,3-dibutyl-5-phenyl-7-methylthio-8-(N-{(R)-α-[N-((S)-1-carboxy-2-(R)-hydroxypropyl)carbamoyl]-4-hydroxybenzyl}carbamoylmethoxy)-2,3,4,5-tetrahydro-1,2,5-benzothiadiazepine] | 23 ± 11 g/day |  | 23 ± 11 g/day |  | 
3 | CCCCC1(CCCC)CN(c2ccccc2)c2cc(SC)c(OCC(=O)N[C@@H](C(=O)NCCS(=O)(=O)O)c3ccc(O)cc3)cc2S(=O)(=O)N1 [Compound 1, 1,1-Dioxo-3,3-dibutyl-5-phenyl-7-methylthio-8-(N-{(R)-α-[N-(2-sulphoethyl)carbamoyl]-4-hydroxybenzyl}carbamoylmethoxy)-2,3,4,5-tetrahydro-1,2,5-benzothiadiazepine] |  |  |  | 38 ± 7 g/day | 38 ± 7 g/day
